From patent publication US20200054651A1, “COMPOSITIONS AND METHODS FOR MODULATING PPP2R1A” (The Regents of the University of California, priority 2017, published 2020) come the findings set out here.

In this data set the test system is MCF 10A non-transformed mammary epithelial cells. In words: MCF 10A cell proliferation (toxicity to non-transformed cells). The class given is cell-based. The note with it: 48 h after treatment, Hoescht staining.

Turning to `O=C(CCl)Nc1ccc2c(c1)OCCO2` [DKM 2-90, 2-Chloro-N-(2,3-dihydrobenzo[β][1,4]dioxin-6-yl)acetamide], the “toxicity to MCF 10A cells (cell proliferation)” value is recorded as “less toxic than DKM 2-91”.
